Assay results: patent US10792248B2, “Aqueous suspension preparation comprising nanoparticles of macrolide antibacterial agent” (ACTIVUS PHARMA CO., LTD., priority 2013, dated 2020)
Converted amounts (≈) assume the structure as drawn. Read-outs that look alike come from different tables or passages of the source.

Key:
Pseudomonas aeruginosa = assay: Minimum inhibitory concentration (MIC) test, broth microdilution method; assay type: cell-based; conditions: 35±1° C., 18 to 24 hours, replicates
Method: (§1) An MIC test was conducted by applying the minimum inhibitory concentration (MIC) measurement method by the broth microdilution method (the standard method of Japanese Society of Chemotherapy). The clarithromycin suspension prepared in Example 6 (1) (test substance 1) was used as a test substance. An unpulverized clarithromycin suspension (test substance 2) and a clarithromycin solution in DMSO (test substance 3) were used as controls for comparisons.
(§2) Each of the test substances was stirred for 15 seconds or more using a vortex mixer before dilution. The clarithromycin-containing samples (test substances 1 to 3) were diluted with Mueller Hinton II broth to be a concentration of 250 μg/mL, and then two-fold diluted serially to prepare mediums containing the each sample at a final drug concentration of 0.012 to 25 μg/mL, which were used for inoculation of Staphylococcus aureus subsp. aureus. Similarly, the samples were diluted with Mueller Hinton II broth to a concentration of 1000 μg/mL, and then two-fold diluted serially to prepare mediums containing the each sample at a final drug concentration of 0.049 to 100 μg/mL, which were used for inoculating Pseudomonas aeruginosa.
(§3) To a U-shaped well microplate, 0.1±0.02 mL per well of the each prepared test substance-containing medium was dispensed. Drug-free medium was dispensed into two wells as a control.
(§4) Staphylococcus aureus subsp. aureus or Pseudomonas aeruginosa was cultured overnight in Mueller Hinton II agar medium. The fresh cultured bacterium on the agar plate was suspended in equivalent to 0.5 McFarand (about 10^8 CFU/mL) with sterilized saline and further diluted tenfold (about 10^7 CFU/mL) with sterilized saline to prepare a bacterium liquid.
(§5) To each of the wells to which the test substance-containing medium or the test substance-free medium was dispensed, 0.005 mL of the bacterium liquid of Staphylococcus aureus subsp. aureus or Pseudomonas aeruginosa prepared in the above (2-2) was inoculated (final amount of bacterium liquid: about 10^4 CFU/well). The bacterium liquid was not inoculated to a part of the wells with the test substance-free medium to prepare negative control wells. After inoculation, the media were cultured at 35±1° C. for 18 to 24 hours.
(§6) After confirming growth in the control wells containing the test substance-free media, the minimum inhibitory concentration (MIC) was determined as the minimum drug concentration in which the growth of bacterium was not detected with the naked eye. […] When turbidity or a precipitation was not observed with the naked eye, or when only one precipitation with the diameter of 1 mm or less was observed, the growth was determined negative (−).

[1] = system: Staphylococcus aureus subsp. aureus; assay: as above; assay type: cell-based; conditions: 35±1° C., 18 to 24 hours, replicates
Method: as §1, §2, §3, §4, §5, §6

[2] = cited from earlier work
[3] = rabbit, in vivo; cited from earlier work
[4] = system: nontuberculous mycobacteria; conditions: cited from earlier work
[5] = formulation with effective average diameter of less than 2000 nm combined with a surface stabilizer (Patent Literature 4); cited from earlier work
[6] = Stability test of nanoized clarithromycin suspension formulation, residual ratio by HPLC (Example 10); assay type: physicochemical; conditions: 5° C., 25° C. and 40° C., 14 days
Method: A quantity of 6 to 8 g of the nanoized clarithromycin suspension formulations (clarithromycin concentrations 0.3% and 1.0%) produced in Example 7 (1) were weighed in a 9 mL-screw vial, allowed to stand in thermo-hygrostats each set at 5° C., 25° C., and 40° C. to carry out the stability test over a period of 14 days. On days 7 and 14, the clarithromycin concentrations were determined by high performance liquid chromatography (HPLC), and the residual ratio was determined as compared to the clarithromycin concentration immediately after the formulation which was taken as 100% to evaluate the stability. The HPLC analysis conditions were as follows.
Apparatus: Waters alliance
Column: Inertsil ODS 4.6 mm×150 mm
Column temperature: 50° C.
Detection wavelength: 210 nm

| Compound | MIC (Pseudomonas aeruginosa) | Minimum inhibitory concentration (Pseudomonas aeruginosa) | MIC [1] | Minimum inhibitory concentration [1] | solubility in acetone ([2]; acetone) | solubility in chloroform ([2]; chloroform) | solubility in ethanol ([2]; ethanol) | solubility in ether ([2]; ether) | solubility ([2]; formulation with effective average diameter of less than 2000 nm combined with a surface stabilizer (Patent Literature 4)) | solubility in methanol ([2]; methanol) | solubility ([2]; pulverized with L-ascorbic-acid 2-glycoside (Non Patent Literature 1)) | solubility in water ([2]; water) | retention in the cornea [3] | effectiveness against nontuberculous mycobacteria relative to azithromycin [4] | oral bioavailability [5] | stability (decomposition) in the suspension formulations [6] |
| --- | --- | --- | --- | --- | --- | --- | --- | --- | --- | --- | --- | --- | --- | --- | --- | --- |
| CC[C@H]1OC(=O)[C@H](C)[C@@H](O[C@H]2C[C@@](C)(OC)[C@@H](O)[C@H](C)O2)[C@H](C)[C@@H](O[C@@H]2O[C@H](C)C[C@H](N(C)C)[C@H]2O)[C@](C)(OC)C[C@@H](C)C(=O)[C@H](C)[C@@H](O)[C@]1(C)O [Clarithromycin solution in DMSO, clarithromycin] | > 100 µg/mL | >100 µg/mL | 0.391 µg/mL (≈ 0.523 µM) | 0.391 µg/mL (≈ 0.523 µM) | – | – | – | – | – | – | – | – | – | – | – | – |
| CC[C@H]1OC(=O)[C@H](C)[C@@H](O[C@H]2C[C@@](C)(OC)[C@@H](O)[C@H](C)O2)[C@H](C)[C@@H](O[C@@H]2O[C@H](C)C[C@H](N(C)C)[C@H]2O)[C@](C)(OC)C[C@@H](C)C(=O)[C@H](C)[C@@H](O)[C@]1(C)O [clarithromycin] | – | – | – | – | slightly soluble | slightly soluble | very slightly soluble | very slightly soluble | higher solubility | very slightly soluble | enhanced solubility | practically insoluble | retained in the cornea | four to eight times as effective as azithromycin | higher oral bioavailability | not decomposed but stable |
